Test results as given in ChEMBL document CHEMBL3885861, “Open TG-GATES”.

Species: Rattus norvegicus
Assay: Open TG-GATES - Regimen: Daily Repeat
Assay type: toxicity, organism-based, Sprague-Dawley
Parameters: regimen Daily Repeat, gender Male, age 6 weeks
Conditions: in vivo, po, 500 mg/kg, route gavage, dose level High; for APTT / Bas / Eos / Fbg / Hb / Ht / Lym / MCH / MCHC / MCV / Mono / Neu / PT / Plat / RBC / Ret / WBC: tissue Blood; for KIDNEY_L / KIDNEY_R / KIDNEY_TOTAL: tissue Kidney; for LIVER: tissue Liver; for A/G / ALP / ALT / AST / BUN / CRE / Ca / Cl / DBIL / GLC / IP / K / LDH / Na / PL / RALB / TBIL / TC / TG / TP / gamma-GTP: tissue Plasma

SMILES: CN1C(=O)OC(C)(C)C1=O [TRIMETHADIONE]
- TERMINAL_BW (72 h, time 3 day): 231.2 g
- APTT (72 h, time 3 day): 19.5 s
- Bas (72 h, time 3 day): 0.2%
- Eos (72 h, time 3 day): 0.6%
- Fbg (72 h, time 3 day): 280 mg/dL
- Hb (72 h, time 3 day): 13.7 g/dL
- Ht (72 h, time 3 day): 40.3%
- Lym (72 h, time 3 day): 80%
- MCH (72 h, time 3 day): 21.4 pg
- MCHC (72 h, time 3 day): 34%
- MCV (72 h, time 3 day): 63 fL
- Mono (72 h, time 3 day): 3.2%
- Neu (72 h, time 3 day): 15.6%
- PT (72 h, time 3 day): 13.3 s
- Plat (72 h, time 3 day): 127.8 x10_4/uL
- RBC (72 h, time 3 day): 640 x10_4/ul
- Ret (72 h, time 3 day): 5.1%
- WBC (72 h, time 3 day): 107.7 x10_2/uL
- KIDNEY_L (72 h, time 3 day): 1.1 g
- KIDNEY_R (72 h, time 3 day): 1 g
- KIDNEY_TOTAL (72 h, time 3 day): 2.1 g
- LIVER (72 h, time 3 day): 13.3 g
- A/G (72 h, time 3 day): 0.8
- ALP (72 h, time 3 day): 1686.2 IU/L
- ALT (72 h, time 3 day): 57.2 IU/L
- AST (72 h, time 3 day): 106.6 IU/L
- BUN (72 h, time 3 day): 16 mg/dL
- CRE (72 h, time 3 day): 0.2 mg/dL
- Ca (72 h, time 3 day): 11.2 mg/dL
- Cl (72 h, time 3 day): 99.4 meq/L
- DBIL (72 h, time 3 day): 0.006 mg/dL
- GLC (72 h, time 3 day): 169.4 mg/dL
- IP (72 h, time 3 day): 7.7 mg/dL
- K (72 h, time 3 day): 4.5 meq/L
- LDH (72 h, time 3 day): 114.8 IU/L
- Na (72 h, time 3 day): 143 meq/L
- PL (72 h, time 3 day): 160 mg/dL
- RALB (72 h, time 3 day): 2.7 g/dL
- TBIL (72 h, time 3 day): 0.04 mg/dL
- TC (72 h, time 3 day): 88.4 mg/dL
- TG (72 h, time 3 day): 70.6 mg/dL
- TP (72 h, time 3 day): 5.8 g/dL
- gamma-GTP (72 h, time 3 day): 1 IU/L
- TERMINAL_BW ([…], time 7 day): 268.1 g
- TERMINAL_BW ([…], time 14 day): 306.3 g
- TERMINAL_BW ([…], time 28 day): 346.7 g
- APTT ([…], time 7 day): 15.5 s
- Bas ([…], time 7 day): 0.6%
- Eos ([…], time 7 day): 0.8%
- Fbg ([…], time 7 day): 272.6 mg/dL
- Hb ([…], time 7 day): 13.4 g/dL
- Ht ([…], time 7 day): 39%
- Lym ([…], time 7 day): 70.4%
- MCH ([…], time 7 day): 21.2 pg
- MCHC ([…], time 7 day): 34.4%
- MCV ([…], time 7 day): 61.8 fL
- Mono ([…], time 7 day): 4.2%
- Neu ([…], time 7 day): 24%
- PT ([…], time 7 day): 14.8 s
- Plat ([…], time 7 day): 109.8 x10_4/uL
- RBC ([…], time 7 day): 630.8 x10_4/ul
- Ret ([…], time 7 day): 4.4%
- WBC ([…], time 7 day): 138.4 x10_2/uL
- APTT ([…], time 14 day): 33.5 s
- Bas ([…], time 14 day): 0.2%
- Eos ([…], time 14 day): 0.4%
- Fbg ([…], time 14 day): 282.6 mg/dL
- Hb ([…], time 14 day): 14 g/dL
- Ht ([…], time 14 day): 40.3%
- Lym ([…], time 14 day): 77.2%
- MCH ([…], time 14 day): 21.1 pg
- MCHC ([…], time 14 day): 34.8%
- MCV ([…], time 14 day): 60.7 fL
- Mono ([…], time 14 day): 4.2%
- Neu ([…], time 14 day): 17%
- PT ([…], time 14 day): 14 s
- Plat ([…], time 14 day): 116.4 x10_4/uL
- RBC ([…], time 14 day): 664 x10_4/ul
- Ret ([…], time 14 day): 4.5%
- WBC ([…], time 14 day): 86.5 x10_2/uL
- APTT ([…], time 28 day): 19.2 s
- Bas ([…], time 28 day): 0.2%
- Eos ([…], time 28 day): 0.8%
- Fbg ([…], time 28 day): 288.6 mg/dL
- Hb ([…], time 28 day): 15.4 g/dL
- Ht ([…], time 28 day): 43.1%
- Lym ([…], time 28 day): 68.2%
- MCH ([…], time 28 day): 20.6 pg
- MCHC ([…], time 28 day): 35.7%
- MCV ([…], time 28 day): 57.9 fL
- Mono ([…], time 28 day): 3.4%
- Neu ([…], time 28 day): 27.2%
- PT ([…], time 28 day): 14.5 s
- Plat ([…], time 28 day): 103 x10_4/uL
- RBC ([…], time 28 day): 744.8 x10_4/ul
- Ret ([…], time 28 day): 2.3%
- WBC ([…], time 28 day): 84.6 x10_2/uL
- KIDNEY_L ([…], time 7 day): 1.2 g
- KIDNEY_R ([…], time 7 day): 1.2 g
- KIDNEY_TOTAL ([…], time 7 day): 2.4 g
- KIDNEY_L ([…], time 14 day): 1.3 g
- KIDNEY_R ([…], time 14 day): 1.3 g
- KIDNEY_TOTAL ([…], time 14 day): 2.6 g
- KIDNEY_L ([…], time 28 day): 1.5 g
- KIDNEY_R ([…], time 28 day): 1.4 g
- KIDNEY_TOTAL ([…], time 28 day): 2.9 g
- LIVER ([…], time 7 day): 16.6 g
- LIVER ([…], time 14 day): 17.4 g
- LIVER ([…], time 28 day): 18.4 g
- A/G ([…], time 7 day): 0.8
- ALP ([…], time 7 day): 1535.2 IU/L
- ALT ([…], time 7 day): 62.6 IU/L
- AST ([…], time 7 day): 121 IU/L
- BUN ([…], time 7 day): 16 mg/dL
- CRE ([…], time 7 day): 0.2 mg/dL
- Ca ([…], time 7 day): 10.9 mg/dL
- Cl ([…], time 7 day): 97.2 meq/L
- DBIL ([…], time 7 day): 0.016 mg/dL
- GLC ([…], time 7 day): 179 mg/dL
- IP ([…], time 7 day): 7.7 mg/dL
- K ([…], time 7 day): 4 meq/L
- LDH ([…], time 7 day): 81.4 IU/L
- Na ([…], time 7 day): 146.2 meq/L
- PL ([…], time 7 day): 166.2 mg/dL
- RALB ([…], time 7 day): 2.8 g/dL
- TBIL ([…], time 7 day): 0.042 mg/dL
- TC ([…], time 7 day): 85 mg/dL
- TG ([…], time 7 day): 96.8 mg/dL
- TP ([…], time 7 day): 6.1 g/dL
- gamma-GTP ([…], time 7 day): 1.6 IU/L
- A/G ([…], time 14 day): 0.9
- ALP ([…], time 14 day): 1426.4 IU/L
- ALT ([…], time 14 day): 57 IU/L
- AST ([…], time 14 day): 117.4 IU/L
- BUN ([…], time 14 day): 16.8 mg/dL
- CRE ([…], time 14 day): 0.2 mg/dL
- Ca ([…], time 14 day): 10.7 mg/dL
- Cl ([…], time 14 day): 100.6 meq/L
- DBIL ([…], time 14 day): 0.01 mg/dL
- GLC ([…], time 14 day): 181.6 mg/dL
- IP ([…], time 14 day): 6.7 mg/dL
- K ([…], time 14 day): 3.6 meq/L
- LDH ([…], time 14 day): 127.6 IU/L
- Na ([…], time 14 day): 146.2 meq/L
- PL ([…], time 14 day): 169.6 mg/dL
- RALB ([…], time 14 day): 3.1 g/dL
- TBIL ([…], time 14 day): 0.034 mg/dL
- TC ([…], time 14 day): 97.4 mg/dL
- TG ([…], time 14 day): 59.2 mg/dL
- TP ([…], time 14 day): 6.5 g/dL
- gamma-GTP ([…], time 14 day): 1.6 IU/L
- A/G ([…], time 28 day): 0.9
- ALP ([…], time 28 day): 1105.4 IU/L
- ALT ([…], time 28 day): 57.8 IU/L
- AST ([…], time 28 day): 141.2 IU/L
- BUN ([…], time 28 day): 15.6 mg/dL
- CRE ([…], time 28 day): 0.3 mg/dL
- Ca ([…], time 28 day): 10.4 mg/dL
- Cl ([…], time 28 day): 97.8 meq/L
- DBIL ([…], time 28 day): 0.006 mg/dL
- GLC ([…], time 28 day): 176 mg/dL
- IP ([…], time 28 day): 6.2 mg/dL
- K ([…], time 28 day): 3.6 meq/L
- LDH ([…], time 28 day): 83.2 IU/L
- Na ([…], time 28 day): 145 meq/L
- PL ([…], time 28 day): 155.2 mg/dL
- RALB ([…], time 28 day): 3.1 g/dL
- TBIL ([…], time 28 day): 0.032 mg/dL
- TC ([…], time 28 day): 83.8 mg/dL
- TG ([…], time 28 day): 122.8 mg/dL
- TP ([…], time 28 day): 6.9 g/dL
- gamma-GTP ([…], time 28 day): 1.4 IU/L
